This note sets out measurements from ChEMBL document CHEMBL4346752, “Discovery and evaluation of novel nitrodihydroimidazooxazoles as promising anti-tuberculosis agents” (Bioorg Med Chem Lett, 2019).

This assay deals with Mycobacterium tuberculosis variant bovis. In words: Antimycobacterial activity against Mycobacterium bovis ATCC 35737 assessed as reduction in bacterial cell growth incubated for 8 days by alamar blue staining based assay. The assay is classed as functional. To be noted: ATCC 35737, 192 h. For orientation: Resazurin is reduced to fluorescent resorufin, in cell work by metabolically active cells.

Values after ≈ are worked out from the molar mass of the structure shown. Bounds are passed on as bounds.

`C[C@]1(COc2ccc(N3CCC(Oc4ccc(OC(F)(F)F)cc4)CC3)cc2)Cn2cc([N+](=O)[O-])nc2O1`: the minimal inhibitory concentration (MIC) (in general, the least concentration at which growth counts as inhibited) was at most 0.0625 µg/mL. Then `C[C@]1(CN2CCc3oc(-c4ccc(F)c(F)c4)nc3C2)Cn2cc([N+](=O)[O-])nc2O1`, with 0.25 µg/mL (≈ 0.599 µM). On to `C[C@]1(CN2CCc3oc(-c4ccc(F)cc4)cc3C2)Cn2cc([N+](=O)[O-])nc2O1`, for which the MIC was found to be 1 µg/mL (≈ 2.51 µM). Then `C[C@]1(CN2CCn3cc(-c4ccc(F)cc4)nc3C2)Cn2cc([N+](=O)[O-])nc2O1`, with 1 µg/mL (≈ 2.51 µM); and `C[C@]1(CN2CCc3nc(-c4cc(F)ccc4Cl)ccc3C2)Cn2cc([N+](=O)[O-])nc2O1`, with at most 0.0625 µg/mL. As to `C[C@]1(CN2CCc3nc(-c4cc(F)cc(F)c4)ccc3C2)Cn2cc([N+](=O)[O-])nc2O1`, the minimum inhibitory concentration (MIC) was at most 0.0625 µg/mL.

`C[C@]1(CN2CCc3nc(-c4ccc(F)c(Cl)c4)ccc3C2)Cn2cc([N+](=O)[O-])nc2O1`: the MIC is at most 0.0625 µg/mL. For `C[C@]1(CN2CCc3nc(N4CCOCC4)ccc3C2)Cn2cc([N+](=O)[O-])nc2O1`, the minimal inhibitory concentration (MIC) is 0.5 µg/mL (≈ 1.25 µM). Then `C[C@]1(CN2CCc3nc(-c4ccc(F)cc4)nnc3C2)Cn2cc([N+](=O)[O-])nc2O1`, with 0.5 µg/mL (≈ 1.22 µM). On to `C[C@]1(CN2CCc3nc(-c4ccc(C#N)cc4)ccc3C2)Cn2cc([N+](=O)[O-])nc2O1`, for which the MIC was found to be 2 µg/mL (≈ 4.8 µM). To `C[C@]1(CN2CCc3sc(-c4ccc(F)cc4)nc3C2)Cn2cc([N+](=O)[O-])nc2O1` belongs 0.25 µg/mL (≈ 0.602 µM); to `C[C@]1(CN2CCc3oc(-c4ccc(F)cc4)nc3C2)Cn2cc([N+](=O)[O-])nc2O1`, 0.5 µg/mL (≈ 1.25 µM); to `C[C@]1(CN2CCc3nc(-c4ccccc4)ccc3C2)Cn2cc([N+](=O)[O-])nc2O1`, 0.25 µg/mL (≈ 0.639 µM). In the case of `C[C@]1(CN2CCn3cc(-c4ccc(F)c(F)c4)nc3C2)Cn2cc([N+](=O)[O-])nc2O1`, the minimum inhibitory concentration (MIC) turned out to be 1 µg/mL (≈ 2.4 µM). Take `C[C@]1(CN2CCc3nc(-c4ccccc4F)ccc3C2)Cn2cc([N+](=O)[O-])nc2O1`: the MIC was found to be 0.125 µg/mL (≈ 0.305 µM). Consider `C[C@]1(CN2CCc3nc(-c4ccccc4)ncc3C2)Cn2cc([N+](=O)[O-])nc2O1`, for which the minimal inhibitory concentration (MIC) turned out to be 1 µg/mL (≈ 2.55 µM).

Turning to `C[C@]1(CN2CCc3nc(-c4ccc(Cl)cc4F)ccc3C2)Cn2cc([N+](=O)[O-])nc2O1`, the MIC was at most 0.0625 µg/mL. Take `C[C@]1(CN2CCn3nc(-c4ccc(F)c(F)c4)nc3C2)Cn2cc([N+](=O)[O-])nc2O1`: the minimal inhibitory concentration (MIC) was 1 µg/mL (≈ 2.4 µM). As to `C[C@]1(CN2CCc3nc(-c4cc(F)ccc4F)ccc3C2)Cn2cc([N+](=O)[O-])nc2O1`, the MIC is at most 0.0625 µg/mL. Take `C[C@]1(CN2CCc3nc(N4CCC(F)(F)CC4)ccc3C2)Cn2cc([N+](=O)[O-])nc2O1`: the MIC turned out to be 0.5 µg/mL (≈ 1.15 µM). Regarding `C[C@]1(CN2CCc3nc(-c4ccc(Cl)cc4)ccc3C2)Cn2cc([N+](=O)[O-])nc2O1`, the minimal inhibitory concentration (MIC) is 2 µg/mL (≈ 4.7 µM). Then `C[C@]1(CN2CCc3nc(N4CCCCC4)ccc3C2)Cn2cc([N+](=O)[O-])nc2O1`, with 0.5 µg/mL (≈ 1.25 µM); and `C[C@]1(CN2CCc3nc(C(F)(F)F)ccc3C2)Cn2cc([N+](=O)[O-])nc2O1`, with 2 µg/mL (≈ 5.22 µM); and `C[C@]1(CN2CCc3nc(-c4ccc(F)cc4)ccc3C2)Cn2cc([N+](=O)[O-])nc2O1`, with at most 0.0625 µg/mL.

On to `C[C@]1(CN2CCc3nc(-c4cc(F)c(F)c(F)c4)ccc3C2)Cn2cc([N+](=O)[O-])nc2O1`, for which the minimum inhibitory concentration (MIC) was at most 0.0625 µg/mL. Then `C[C@]1(CN2CCc3nc(-c4cc(Cl)ccc4F)ccc3C2)Cn2cc([N+](=O)[O-])nc2O1`, with at most 0.0625 µg/mL; and `C[C@]1(CN2CCc3nc(-c4ccc(F)c(F)c4)oc3C2)Cn2cc([N+](=O)[O-])nc2O1`, with 0.125 µg/mL (≈ 0.299 µM). On to `C[C@]1(CN2CCc3nc(-c4ccc(OC(F)(F)F)cc4)ccc3C2)Cn2cc([N+](=O)[O-])nc2O1`, for which the MIC amounted to 8 µg/mL (≈ 16.8 µM). To `C[C@]1(CN2CCc3nc(C4CCOCC4)ccc3C2)Cn2cc([N+](=O)[O-])nc2O1` belongs 2 µg/mL (≈ 5.01 µM); to `C[C@]1(CN2CCc3nc(-c4ccc(Cl)c(F)c4)ccc3C2)Cn2cc([N+](=O)[O-])nc2O1`, at most 0.0625 µg/mL.

On to `C[C@]1(CN2CCc3nc(-c4ccc(F)cc4F)ccc3C2)Cn2cc([N+](=O)[O-])nc2O1`, for which the minimum inhibitory concentration (MIC) was at most 0.0625 µg/mL. In the case of `C[C@]1(CN2CCc3nc(-c4cc(F)cc(Cl)c4)ccc3C2)Cn2cc([N+](=O)[O-])nc2O1`, the minimum inhibitory concentration (MIC) is at most 0.0625 µg/mL.

`C[C@]1(CN2CCc3nc(-c4cccc(Cl)c4F)ccc3C2)Cn2cc([N+](=O)[O-])nc2O1`: the minimum inhibitory concentration (MIC) was at most 0.0625 µg/mL.

In the case of `C[C@]1(CN2CCc3nc(-c4ccc(F)cc4)oc3C2)Cn2cc([N+](=O)[O-])nc2O1`, the MIC amounted to 0.25 µg/mL (≈ 0.626 µM).

Consider `C[C@]1(CN2CCc3nc(-c4cccc(F)c4)ccc3C2)Cn2cc([N+](=O)[O-])nc2O1`, for which the MIC was at most 0.0625 µg/mL. In the case of `C[C@]1(CN2CCc3nc(-c4cccc(F)c4F)ccc3C2)Cn2cc([N+](=O)[O-])nc2O1`, the MIC was at most 0.0625 µg/mL. To `C[C@]1(CN2CCc3nc(-c4ccc(C(F)(F)F)cc4)ccc3C2)Cn2cc([N+](=O)[O-])nc2O1` belongs at most 0.0625 µg/mL; to `C[C@]1(CN2CCc3nc(C4CC4)ccc3C2)Cn2cc([N+](=O)[O-])nc2O1`, 0.5 µg/mL (≈ 1.41 µM); to `C[C@]1(CN2CCc3nc(C4CCCCC4)ccc3C2)Cn2cc([N+](=O)[O-])nc2O1`, 0.25 µg/mL (≈ 0.629 µM). To `C[C@]1(CN2CCc3nc(-c4ccc(F)c(F)c4)ccc3C2)Cn2cc([N+](=O)[O-])nc2O1` belongs at most 0.0625 µg/mL; to `C[C@]1(CN2CCc3nc(-c4ccc(F)cc4)sc3C2)Cn2cc([N+](=O)[O-])nc2O1`, 0.125 µg/mL (≈ 0.301 µM).
